According to US20150147436A1, “PRODUCTION OF CHEESE WITH S. THERMOPHILUS” (DuPont Nutrition BioSciences ApS, priority 2011, published 2015):

Columns and labels:
[1] = tested on: urease enzyme; assay: Floating curd experiment in test tubes (Example 3); conditions: Lactococci + ur(+) S. thermophilus + urease inhibitor, fermented at 35° C. to pH 4.65, heated at about 66° C. (test tube 3)
Description: Four experiments were conducted in which milk was treated with various bacteria. In experiment 1, only Lactococci bacteria were added. In experiment 2, a blend of Lactococci bacteria and ur(+) S. thermophilus bacteria were added. In experiment 3, a blend of Lactococci bacteria, ur(+) S. thermophilus bacteria, and the urease inhibitor flurofamide were added. In experiment 4, only ur(+) S. thermophilus bacteria were added.
In each experiment, the milk was fermented with the bacteria at 35° C. until the cheese reached a pH of 4.65. A sample of the cheese was placed into a test tube, which was heated at about 66° C. for about 10 minutes. After 10 minutes of heating, a small pipette or thin wire was used to agitate the sample. The samples were held at about 66° C. for another ten minutes, at which time the photograph of the test tubes depicted in FIG. 3, was taken.
Test tube 4 is a positive control that contains ur(+) S. thermophilus, which has urease enzymes that can hydrolyze urea in milk.

[2] = tested on: ur(−) S. thermophilus; assay: Acidification of milk by S. thermophilus with or without sodium formate (Example 2); type: cell-based; conditions: 10 ppm sodium formate, 2% milk, 40° C., no Lactococci, 350 minutes
Description: Samples of 2% milk taken from the same source were treated with ur(+) S. thermophilus without formate, ur(−) S. thermophilus without formate, and ur(−) S. thermophilus with 10 ppm sodium formate. Lactoccocci bacteria were not used. The milk was maintained at 40° C., and pH measurements were taken for 350 minutes.
FIG. 2 is a graph showing exemplary results from this experiment.

| Compound | floating curd [1] | pH decrease effected by the ur(−) S. thermophilus [2] |
| --- | --- | --- |
| NP(N)(=O)NC(=O)c1ccc(F)cc1 [flurofamide] | no floating curd |  |
| O=C[O-].[Na+] [sodium formate] |  | significantly accelerated |
